Data from PMC6851324, “Design and development of stapled transmembrane peptides that disrupt the activity of G-protein–coupled receptor oligomers” (The Journal of Biological Chemistry, 2019).
Where two headings read alike, the source gives them in different places. Where a SMILES comes first, the peptide text is derived from it. Bridges are numbered along the chain shown (N, C = ends). Where no end group is shown, it is not given here. [ ]: non-standard residue; d: D form. S5 = C=CCCC[C@](C)(N)C(=O)O; Nle = CCCC[C@H](N)C(=O)O

How the values were obtained:
Stability in mouse serum = type: in vitro ADME; settings: 11.1 μM peptide, fresh nonsterile mouse serum (200 μl serum + 25 μl peptide solution, pH 7.5 buffer with 10% DMSO), 37 °C, quench 15% TCA in acetonitrile, HPLC, n = 3; read-out: Half-life (hours), mouse serum (converted)
Method: (§1) Figure 4. Biophysical analysis of stapled peptides. A, amino acid sequence alignment of the targeted TM regions and disrupting peptides. Cys residues are in the reduced state. Blue bridges indicate the stapled amino acid residues. […] Yields, purity, and MALDI-TOF data are shown for the stapled peptides and negative control. B, CD analysis of 30–50 μM peptides at 20 °C. For proteolytic stability studies, the peptide solution (55.5 μM for trypsin and chymotrypsin and 11.1 μM for serum) was incubated in the presence of 0.55 μg/ml trypsin from porcine pancreas (E), α-chymotrypsin (F), or mouse serum (G) at 37 °C for the indicated times (indicated on the x axis). Data are mean ± S.E. (error bars) (n = 3) percentage of intact peptide normalized to t = 0. Proteolytic half-lives and putative cleavage sites (predicted using the Expasy bioinformatics server's model with a 50% probability of cleavage) are indicated at the bottom of each panel. Positive correlation between helicity and half-life in trypsin/chymotrypsin (C) or serum (D) was determined by two-tailed Pearson's correlation test. TEXT PRINTED IN THE PICTURE: (B) TM7-TAT: Ellipticity (%): 3.4 | (B) TM6-TAT: Ellipticity (%): 18.3 | (B) TM5-TAT: Ellipticity (%): 20.9 | (B) 8: Ellipticity (%): 58.3 | (B) 9: Ellipticity (%): 46.4 | (B) 10: Ellipticity (%): 36.8 | (B) 11: Ellipticity (%): 46 | (E) TM7-TAT: Half-life (min): 21; #Cleavage sites: 8 | (E) TM6-TAT: Half-life (min): 40; #Cleavage sites: 7 | (E) TM5-TAT: Half-life (min): 33; #Cleavage sites: 8 | (E) 8: Half-life (min): 307; #Cleavage sites: 0 | (E) 9: Half-life (min): 178; #Cleavage sites: 0 | (E) 10: Half-life (min): 75; #Cleavage sites: 6 | (E) 11: Half-life (min): 84; #Cleavage sites: 0 | (F) TM7-TAT: Half-life (min): 22; #Cleavage sites: 6 | (F) TM6-TAT: Half-life (min): 32; #Cleavage sites: 7 | (F) TM5-TAT: Half-life (min): 28; #Cleavage sites: 7 | (F) 8: Half-life (min): 425; #Cleavage sites: 4 | (F) 9: Half-life (min): 198; #Cleavage sites: 3 | (F) 10: Half-life (min): 63; #Cleavage sites: 2 | (F) 11: Half-life (min): 79; #Cleavage sites: 4 | (G) TM7-TAT: Half-life (hours): 0.46 | (G) TM6-TAT: Half-life (hours): 0.55 | (G) TM5-TAT: Half-life (hours): 0.81 | (G) 8: Half-life (hours): ≥18 | (G) 9: Half-life (hours): 14.7 | (G) 10: Half-life (hours): 11.7 | (G) 11: Half-life (hours): 5.3 DOUBTS OF THE COPYIST ABOUT THIS PICTURE: Panel A table (Yield, Rt, Purity, [M+H+] calc., [M+H+] Peak Found for 7-11) left out as synthesis and mass-spectrum characterisation data; uncertain whether [M+H+] calc. should count as a molecular weight
(§2) Dose–response curves were fitted using a four-parameter logistic nonlinear regression mode. Peptide stability data were fitted using a nonlinear regression mode for dissociation kinetics. All statistical tests, curve fitting, and graphing were performed using GraphPad Prism 8 (GraphPad Software, La Jolla, CA).
To 200 μl of fresh nonsterile mouse serum was added 25 μl of peptide solution (100 μM, dissolved in ammonium bicarbonate buffer, pH 7.5, containing 10% DMSO), and the mixture was incubated at 37 °C. At the specified time, an aliquot of incubation mixture was withdrawn and quenched by the addition of an equal volume of 15% TCA in acetonitrile to precipitate out serum proteins over ice for 30 min. The mixture was then centrifuged at 13,500 rpm for 10 min, and the supernatant was collected and analyzed by HPLC in a similar manner as described previously. The experiment was repeated twice on different days.

CD helicity measurements = type: physicochemical; settings: 30–50 μM peptide in MilliQ water, 20 °C, 1-mm path length, three scans 195–260 nm, % helicity from molar ellipticity at 222 nm
Method: Figure 4. Biophysical analysis of stapled peptides. A, amino acid sequence alignment of the targeted TM regions and disrupting peptides. Cys residues are in the reduced state. Blue bridges indicate the stapled amino acid residues. […] Yields, purity, and MALDI-TOF data are shown for the stapled peptides and negative control. B, CD analysis of 30–50 μM peptides at 20 °C. For proteolytic stability studies, the peptide solution (55.5 μM for trypsin and chymotrypsin and 11.1 μM for serum) was incubated in the presence of 0.55 μg/ml trypsin from porcine pancreas (E), α-chymotrypsin (F), or mouse serum (G) at 37 °C for the indicated times (indicated on the x axis). Data are mean ± S.E. (error bars) (n = 3) percentage of intact peptide normalized to t = 0. Proteolytic half-lives and putative cleavage sites (predicted using the Expasy bioinformatics server's model with a 50% probability of cleavage) are indicated at the bottom of each panel. Positive correlation between helicity and half-life in trypsin/chymotrypsin (C) or serum (D) was determined by two-tailed Pearson's correlation test. […]
CD spectra were recorded on a Jasco J-810 with a total of three scans from 195 to 260 nm in 0.5-nm increments. […]
The Jasco J-810 generates the raw output in ellipticity and is measured in millidegrees. […] Once the precise concentration was confirmed, the molar ellipticity [θ] was calculated as follows. […]
Where c is the sample concentration (μM), l is the path length (mm), n is the number of peptide bonds (calculated as amino acid residues − 1), and θobs is the observed ellipticity (millidegrees). […]

[1] = biological target: T1, α-chymotrypsin from bovine pancreas (Bos taurus, UniProt P00766, DEL14-15/DEL147-148); assay: Proteolytic stability against chymotrypsin; type: in vitro ADME; settings: cattle
T1 construct: purchased Sigma Type II; host or cells: bovine pancreas
Method: as §1, §2
To 100 μl of peptide solution (100 μM, dissolved in ammonium bicarbonate buffer, pH 7.5), 60 μl of ammonium bicarbonate buffer (pH 7.5) was added, together with 20 μl of temperature-equilibrated (37 ± 1 °C) α-chymotrypsin (5 μg/ml) from bovine pancreas (Sigma, Type II, activity > 40 units/mg protein). Peptides were incubated for 15, 30, 60, 120, 240, and 480 min, and then MeOH (HPLC grade) + 0.05% TFA was added. The samples were then centrifuged (15,000 rpm), and supernatant was analyzed in a similar manner as described above. The experiment was repeated twice on different days.

[2] = isolated enzyme chymotrypsin, 55.5 μM peptide, 0.55 μg/ml α-chymotrypsin from bovine pancreas, ammonium bicarbonate buffer pH 7.5, 37 °C, 15–480 min, intact peptide by RP-HPLC, n = 3, nonlinear regression fit, read-out: Half-life (min), α-chymotrypsin

| Compound | half-life at 11.1 μM (Stability in mouse serum) | Ellipticity (%) (helicity by CD) (CD helicity measurements) | half-life at 55.5 μM ([1]; 55.5 μM peptide, 0.55 μg/ml α-chymotrypsin from bovine pancreas, ammonium bicarbonate buffer pH 7.5, 37 °C, 15–480 min, intact peptide by RP-HPLC, n = 3, nonlinear regression fit, read-out: Half-life (min), α-chymotrypsin) | half-life at 55.5 μM ([1]; isolated enzyme chymotrypsin, pH 7.5) | Ellipticity (%) (helicity by CD) (CD helicity measurements; listed as CB1 TM5-TAT) | half-life at 55.5 μM [1, 2] |
| --- | --- | --- | --- | --- | --- | --- |
| CCCC[C@H](NC(=O)[C@]1(C)CCC/C=C\CCC[C@](C)(NC(=O)[C@H](Cc2ccccc2)NC(=O)[C@H](CC(C)C)NC(=O)[C@H](CC(C)C)NC(=O)[C@H](CC(C)C)NC(=O)[C@@H](N)C(C)C)C(=O)N[C@@H](C(C)C)C(=O)N[C@@H](Cc2ccc(O)cc2)C(=O)N[C@@H](C)C(=O)N1)C(=O)N[C@@H](Cc1ccc(O)cc1)C(=O)N[C@H](C(=O)N[C@@H](CC(C)C)C(=O)N[C@@H](Cc1c[nH]c2ccccc12)C(N)=O)[C@@H](C)CC [Peptide 8] (H-VLLLF[S5]VYA[S5][Nle]YILW-NH2; staple (Z) 6-10) | ≥ 18 h | 58.3% | 425 min |  |  |  |
| C=CCCC[C@](C)(NC(=O)[C@H](Cc1ccc(O)cc1)NC(=O)[C@@H](N)C(C)C)C(=O)N[C@@H](Cc1ccc(O)cc1)C(=O)N[C@@H](CCCC)C(=O)N[C@@](C)(CCCC=C)C(=O)N[C@H](C(=O)N[C@@H](CC(C)C)C(=O)N[C@@H](Cc1c[nH]c2ccccc12)C(N)=O)[C@@H](C)CC [Peptide 11] (H-VY[S5]Y[Nle][S5]ILW-NH2) |  | 46.0% |  | 79 min |  |  |
| ETYLMFWIGVTSVLLLFIVYAYMYILWGRKKRRQRRR [TM5-TAT, reference compound] | 0.81 h |  |  |  | < 20% | 28 min |
| GRKKRRQRRRKTLVLILVVLIICWGPLLAIMVY [TM6-TAT, reference compound] | 0.55 h | < 20% |  |  |  | 32 min |
